# Data taken from patent US20240343710A1, “HETEROCYCLIC COMPOUNDS AND METHODS OF USE THEREOF” (1cBio, Inc., priority 2023, published 2024).
# Structures can show the parent of a compound that is named as a salt. Where two headings read alike, the source gives them in different places.
# How the values were obtained:
# recombinant human PARP1 = recombinant human PARP1 (Homo sapiens, UniProt P09874); assay: PARP1 fluorescence polarization binding assay; conditions: GST-tagged PARP1 20 nM, PARP1-FL probe 3 nM
# recombinant human PARP1, sequence (P09874 whole entry): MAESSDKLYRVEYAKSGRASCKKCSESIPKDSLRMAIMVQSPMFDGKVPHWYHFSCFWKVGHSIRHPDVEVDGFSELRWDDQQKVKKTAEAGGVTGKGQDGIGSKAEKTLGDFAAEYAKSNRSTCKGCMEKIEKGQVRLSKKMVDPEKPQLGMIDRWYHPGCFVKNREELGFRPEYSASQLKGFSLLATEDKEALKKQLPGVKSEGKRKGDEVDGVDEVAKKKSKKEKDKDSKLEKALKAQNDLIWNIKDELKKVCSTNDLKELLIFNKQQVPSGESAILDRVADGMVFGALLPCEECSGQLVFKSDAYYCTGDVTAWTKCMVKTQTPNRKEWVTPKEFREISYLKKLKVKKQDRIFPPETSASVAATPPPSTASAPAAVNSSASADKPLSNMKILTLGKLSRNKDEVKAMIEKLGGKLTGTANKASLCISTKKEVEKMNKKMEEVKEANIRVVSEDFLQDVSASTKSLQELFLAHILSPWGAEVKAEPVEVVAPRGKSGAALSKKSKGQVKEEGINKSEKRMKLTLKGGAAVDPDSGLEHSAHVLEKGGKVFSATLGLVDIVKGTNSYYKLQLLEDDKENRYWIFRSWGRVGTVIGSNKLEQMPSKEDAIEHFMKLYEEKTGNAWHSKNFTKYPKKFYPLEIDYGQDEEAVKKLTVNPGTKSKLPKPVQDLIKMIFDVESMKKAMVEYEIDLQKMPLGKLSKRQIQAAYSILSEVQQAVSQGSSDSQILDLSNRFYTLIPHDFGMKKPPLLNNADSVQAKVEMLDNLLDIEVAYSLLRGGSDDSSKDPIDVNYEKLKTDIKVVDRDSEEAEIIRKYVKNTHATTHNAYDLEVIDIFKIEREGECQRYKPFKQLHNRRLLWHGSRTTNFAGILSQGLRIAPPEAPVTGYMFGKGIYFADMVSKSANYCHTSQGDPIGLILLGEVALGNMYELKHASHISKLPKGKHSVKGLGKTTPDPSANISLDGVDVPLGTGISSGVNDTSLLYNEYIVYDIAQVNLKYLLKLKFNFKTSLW
# In short: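 GST-tagged human PARP1 (20 nM final) preincubated 30 min at RT with compound (10-point 3-fold series or single concentration). PARP1-FL probe (3 nM final) added, then 4 h at RT. Buffer: 50 mM Tris pH 8.0, 10 mM MgCl2, 150 mM NaCl, 0.001% Triton X-100. FP mP values normalized to controls; IC50 from four-parameter fit.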
# recombinant human PARP2 = recombinant human PARP2 (Homo sapiens, UniProt Q9UGN5); assay: PARP2 fluorescence polarization binding assay; conditions: read-out: PARP2 % inh at 10 μM
# recombinant human PARP2, sequence (Q9UGN5 whole entry): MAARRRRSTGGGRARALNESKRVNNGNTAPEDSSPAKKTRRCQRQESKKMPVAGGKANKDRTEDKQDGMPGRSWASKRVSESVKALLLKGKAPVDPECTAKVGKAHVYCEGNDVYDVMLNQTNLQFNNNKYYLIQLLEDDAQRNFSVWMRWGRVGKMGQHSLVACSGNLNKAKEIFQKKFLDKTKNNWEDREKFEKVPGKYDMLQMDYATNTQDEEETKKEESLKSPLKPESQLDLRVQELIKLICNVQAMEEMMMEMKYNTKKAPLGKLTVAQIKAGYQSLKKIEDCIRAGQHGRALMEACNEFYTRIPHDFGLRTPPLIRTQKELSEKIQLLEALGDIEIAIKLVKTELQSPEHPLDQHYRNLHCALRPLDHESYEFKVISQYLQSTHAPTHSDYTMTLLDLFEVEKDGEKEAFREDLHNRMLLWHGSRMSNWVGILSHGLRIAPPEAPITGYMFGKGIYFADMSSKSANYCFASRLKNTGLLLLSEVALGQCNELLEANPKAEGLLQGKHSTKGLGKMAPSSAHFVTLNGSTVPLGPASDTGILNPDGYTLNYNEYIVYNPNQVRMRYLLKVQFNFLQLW
# [1] = tested on: DLD-1 BRCA2(−/−) colorectal adenocarcinoma cells; assay: Cell viability assay (Cell Titer-Glo, 7 days), DLD-1 BRCA2(−/−); type: cell-based; conditions: Homo sapiens, 168 h, DLD-1 BRCA2(−/−) cells
# [2] = tested on: DLD-1 wild-type colorectal adenocarcinoma cells; assay: Cell viability assay (Cell Titer-Glo, 7 days), DLD-1 wild-type; type: cell-based; conditions: Homo sapiens, 168 h, DLD-1 wild-type cells, read-out: DLD-1 wild-type % inh at 10 μM
# [3] = percent inhibition at 10 μM, fluorescence polarization, GST-tagged PARP2 20 nM, PARP1-FL probe 3 nM
SMILES,IC50 (recombinant human PARP1),inhibition at 10 µM (recombinant human PARP2; [3]),IC50 [1],inhibition at 10 µM [2],inhibition at 10 µM (recombinant human PARP2)
"CNC(=O)c1ccc(N2CCN(Cc3ccnc(NC(=O)NCC(F)(F)F)c3)CC2)c(C)n1 [Compound 50, N,6-dimethyl-5-(4-((2-(3-(2,2,2-trifluoroethyl)ureido)pyridin-4-yl)methyl)piperazin-1-y) picolinamide trifluoroacetate]",< 100 nM,< 33%,< 300 nM,< 33%,–
"CCNC(=O)Nc1cc(CN2CCN(c3ccc(C#N)cc3F)CC2)ccn1 [Compound 276, 1-(4-((4-(4-cyano-2-fluorophenyl)piperazin-1-yl)methyl)pyridin-2-yl)-3-ethylurea trifluoroacetate]",< 100 nM,–,< 300 nM,< 33%,< 33%
"CCNC(=O)Nc1ncc(CN2CCN(c3ccc(C(=O)NC)nc3C)CC2)s1 [Compound 242, 5-(4-((2-(3-ethylureido)thiazol-5-yl)methyl)piperazin-1-yl)-N,6-dimethylpicolinamide trifluoroacetate]",< 100 nM,–,300 to 3000 nM,< 33%,< 33%

# The next lines start with results.
IC50 (recombinant human PARP1),inhibition at 10 µM (recombinant human PARP2; [3]),IC50 [1],SMILES,inhibition at 10 µM [2],inhibition at 10 µM (recombinant human PARP2)
< 100 nM,< 33%,< 300 nM,"CCNC(=O)Nc1cc(CN2CCN(c3ccc(NC(C)=O)nc3C)CC2)ccn1 [Compound 269, N-(5-(4-((2-(3-ethylureido)pyridin-4-yl)methyl)piperazin-1-yl)-6-methylpyridin-2-yl)acetamide]",< 33%,–
< 100 nM,< 33%,≥ 3000 nM,"CCNC(=O)Nc1cc(CN2CCN(c3ccc(C(F)(F)F)cn3)CC2)ccn1 [Compound 273, 1-ethyl-3-(4-((4-(5-(trifluoromethyl)pyridin-2-yl)piperazin-1-yl)methyl)pyridin-2-yl) urea]",< 33%,–
